Experimental data: patent publication US11780839B2, “Compounds for treating Huntington's disease” (PTC THERAPEUTICS, INC., priority 2018, dated 2023)

tested on: Endogenous Huntingtin Protein; test: Endogenous Huntingtin Protein Assay (ELISA-based Meso Scale Discovery electrochemiluminescence); format: cell-based; conditions: MSD electrochemiluminescence, Table 1
In short: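 Sandwich MSD electrochemiluminescence immunoassay. Capture used MW1 (expanded polyglutamine) or MAB2166 antibody coated at 1 μg/mL overnight at 4 °C. Samples were bound overnight at 4 °C, then a rabbit monoclonal detection antibody and SULFO-TAG anti-rabbit, each at 0.25 μg/mL, were applied for 1 h at room temperature.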

| Molecule | IC50 |
| --- | --- |
| CC(C)(C)NC1CCN(c2ncc(-c3ccc(-c4cn[nH]c4)cc3O)nn2)C1 (stereo not shown) [Cpd 138, 2-{3-[3-(tert-butylamino)pyrrolidin-1-yl]-1,2,4-triazin-6-yl}-5-(1H-pyrazol-4-yl)phenol] | ≤ 100 nM |
| 5-[1-(^2H3)methyl-1H-pyrazol-4-yl]-2-{6-[methyl(2,2,6,6-tetramethylpiperidin-4-yl)amino]-1,2,4-triazin-3-yl}phenol [Cpd 192] | 100 to 500 nM |
| Cn1ncc(-c2ccc(-c3cnc(N[C@H]4CC(C)(C)NC(C)(C)[C@H]4F)nn3)c(O)c2)n1 [Cpd 287, 2-(3-{[(3S,4S)-3-fluoro-2,2,6,6-tetramethylpiperidin-4-yl]amino}-1,2,4-triazin-6-yl)-5-(2-methyl-2H-1,2,3-triazol-4-yl)phenol] | ≤ 100 nM |
| CC(C)NC1CCN(c2ncc(-c3ccc(-c4c[nH]nn4)cc3O)nn2)C1 (stereo not shown) [Cpd 258, 2-(3-{3-[(propan-2-yl)amino]pyrrolidin-1-yl}-1,2,4-triazin-6-yl)-5-(1H-1,2,3-triazol-4-yl)phenol] | ≤ 100 nM |
| CN1CCC2(CC1)CN(c1ncc(-c3ccc(-c4ccn(C)n4)cc3O)nn1)C2 [Cpd 233, 2-[3-(7-methyl-2,7-diazaspiro[3.5]nonan-2-yl)-1,2,4-triazin-6-yl]-5-(1-methyl-1H-pyrazol-3-yl)phenol] | 1000 to 3000 nM |
| CC1CN(c2ncc(-c3ccc(-c4ccn(C)n4)cc3O)nn2)CC(C)N1 (stereo not shown) [Cpd 263, 2-[3-(3,5-dimethylpiperazin-1-yl)-1,2,4-triazin-6-yl]-5-(1-methyl-1H-pyrazol-3-yl)phenol] | 100 to 500 nM |
| CC1(NC2CCN(c3ncc(-c4ccc(-c5cn[nH]c5)cc4O)nn3)C2)COC1 (stereo not shown) [Cpd 325] | 100 to 500 nM |
| COc1cc(-c2ccc(-c3cnc(N4CCC(NC(C)C)C4)nn3)c(O)c2)ncn1 (stereo not shown) [Cpd 265, 5-(6-methoxypyrimidin-4-yl)-2-(3-{3-[(propan-2-yl)amino]pyrrolidin-1-yl}-1,2,4-triazin-6-yl)phenol] | ≤ 100 nM |
| Cc1cnc(-c2ccc(-c3cnc(N(C)C4CC(C)(C)NC(C)(C)C4)nn3)c(O)c2)o1 [Cpd 1, 5-(5-methyl-1,3-oxazol-2-yl)-2-{3-[methyl(2,2,6,6-tetramethylpiperidin-4-yl)amino]-1,2,4-triazin-6-yl}phenol] | > 500 nM |
| Oc1cc(-c2cn[nH]c2)ccc1-c1cnc(N2CCC(CNC3CCOC3)C2)nn1 (stereo not shown) [Cpd 395, 2-[3-(3-{[(oxolan-3-yl)amino]methyl}pyrrolidin-1-yl)-1,2,4-triazin-6-yl]-5-(1H-pyrazol-4-yl)phenol] | ≤ 100 nM |
| CC1CN(c2ncc(-c3ccc(-c4cn[nH]c4)cc3O)nn2)CC(C)N1 (stereo not shown) [Cpd 262, 2-[3-(3,5-dimethylpiperazin-1-yl)-1,2,4-triazin-6-yl]-5-(1H-pyrazol-4-yl)phenol] | ≤ 100 nM |
| CN1CC[C@@H]2CN(c3ncc(-c4ccc(-c5cn[nH]c5)cc4O)nn3)C[C@@H]21 [Cpd 117, 2-{3-[(3aR,6aR)-1-methylhexahydropyrrolo[3,4-b]pyrrol-5(1H)-yl]-1,2,4-triazin-6-yl}-5-(1H-pyrazol-4-yl)phenol] | 100 to 500 nM |
| CC(C)(C)NC1CCN(c2ncc(-c3ccc(-c4ncco4)cc3O)nn2)C1 (stereo not shown) [Cpd 250, 2-{3-[3-(tert-butylamino)pyrrolidin-1-yl]-1,2,4-triazin-6-yl}-5-(1,3-oxazol-2-yl)phenol] | 100 to 500 nM |
| CN1CCC2(CC1)CN(c1ncc(-c3ccc(-c4c[nH]nn4)cc3O)nn1)C2 [Cpd 245, 2-[3-(7-methyl-2,7-diazaspiro[3.5]nonan-2-yl)-1,2,4-triazin-6-yl]-5-(1H-1,2,3-triazol-4-yl)phenol] | ≤ 100 nM |
| N[C@H]1CC[C@@H]2CN(c3ncc(-c4ccc(-c5cn[nH]c5)cc4O)nn3)C[C@@H]21 [Cpd 165, 2-{3-[(3aR,4S,6aS)-4-aminohexahydrocyclopenta[c]pyrrol-2(1H)-yl]-1,2,4-triazin-6-yl}-5-(1H-pyrazol-4-yl)phenol] | ≤ 100 nM |
| CC(C)(C)NC1CCN(c2cnc(-c3ccc(-c4cn[nH]c4)cc3O)nn2)C1 (stereo not drawn) [Cpd 363, 2-{6-[3-(tert-butylamino)pyrrolidin-l-yl]-1,2,4-triazin-3-yl}-5-(1H-pyrazol-4-yl)phenol] | ≤ 100 nM |
| Cc1ncc(-c2ccc(-c3cnc(NC4CC(C)(C)NC(C)(C)C4)nn3)c(O)c2)o1 [Cpd 277, 5-(2-methyl-1,3-oxazol-5-yl)-2-{3-[(2,2,6,6-tetramethylpiperidin-4-yl)amino]1,2,4-triazin-6-yl}phenol] | ≤ 100 nM |
| Oc1cc(-c2cn[nH]c2)ccc1-c1cnc(N2CCC3(CCCN3)C2)nn1 (stereo not shown) [Cpd 339, 2-[3-(1,7-diazaspiro[4.4]nonan-7-yl)-1,2,4-triazin-6-yl]-5-(1H-pyrazol-4-yl)phenol] | ≤ 100 nM |
| CNC1CCN(c2ncc(-c3ccc(-c4cc(SC)ncn4)cc3O)nn2)C1 (stereo not drawn) [Cpd 364, 2-{3-[3-(methylamino)pyrrolidin-l-yl]-1,2,4-triazin-6-yl}-5-[6-(methylsulfanyl)pyrimidin-4-yl]phenol] | 100 to 500 nM |

| Molecule | IC50 |
| --- | --- |
| CN(c1ncc(-c2ccc(-c3cc(F)ccn3)cc2O)nn1)C1CC(C)(C)NC(C)(C)C1 [Cpd 98, 5-(4-fluoropyridin-2-yl)-2-{3-[methyl(2,2,6,6-tetramethylpiperidin-4-yl)amino]-1,2,4-triazin-6-yl}phenol] | 100 to 500 nM |
| Cn1ccc(-c2ccc(-c3cnc(NC4CC(C)(C)NC(C)(C)C4)nn3)c(O)c2)n1 [Cpd 253, 5-(1-methyl-1H-pyrazol-3-yl)-2-{3-[(2,2,6,6-tetramethylpiperidin-4-yl)amino]-1,2,4-triazin-6-yl}phenol] | ≤ 100 nM |
| Oc1cc(-c2cn[nH]c2)ccc1-c1cnc(N2CCC(NC3CCC(F)(F)C3)C2)nn1 (stereo not shown) [Cpd 409, 2-(3-{3-[(3,3-difluorocyclopentyl)amino]pyrrolidin-1-yl}-1,2,4-triazin-6-yl)-5-(1H-pyrazol-4-yl)phenol] | ≤ 100 nM |
| CN1CCC[C@H]2CN(c3ncc(-c4ccc(-c5cn[nH]c5)cc4O)nn3)C[C@H]21 [Cpd 310, 2-{3-[(4aS,7aS)-1-methyloctahydro-6H-pyrrolo[3,4-b]pyridin-6-yl]-1,2,4-triazin-6-yl}-5-(1H-pyrazol-4-yl)phenol] | 100 to 500 nM |
| CN1CCC2(CC1)CN(c1ncc(-c3ccc(-c4c[nH]nc4F)cc3O)nn1)C2 [Cpd 149, 5-(3-fluoro-1H-pyrazol-4-yl)-2-[3-(7-methyl-2,7-diazaspiro[3.5]nonan-2-yl)-1,2,4-triazin-6-yl]phenol] | ≤ 100 nM |
| CC1(C)C[C@H](Nc2ncc(-c3ccc(-c4cn5ccnc5cn4)cc3O)nn2)[C@H](F)C(C)(C)N1 [Cpd 248, 2-(3-{[(3S,4S)-3-fluoro-2,2,6,6-tetramethylpiperidin-4-yl]amino}-1,2,4-triazin-6-yl)-5-(imidazo[1,2-a]pyrazin-6-yl)phenol] | ≤ 100 nM |
| CN1CCC2(CC1)CN(c1ncc(-c3ccc(-n4nccn4)cc3O)nn1)C2 [Cpd 232, 2-[3-(7-methyl-2,7-diazaspiro[3.5]nonan-2-yl)-1,2,4-triazin-6-yl]-5-(2H-1,2,3-triazol-2-yl)phenol] | ≤ 100 nM |
| CN(c1ncc(-c2ccc(-n3cc(CO)cn3)cc2O)nn1)C1CC(C)(C)NC(C)(C)C1 [Cpd 161, 5-[4-(hydroxymethyl)-1H-pyrazol-1-yl]-2-{3-[methyl(2,2,6,6-tetramethylpiperidin-4-yl)amino]-1,2,4-triazin-6-yl}phenol] | ≤ 100 nM |
| C[C@@H]1CN(c2ncc(-c3ccc(-c4ccc5nccn5n4)cc3O)nn2)C[C@H](C)N1 [Cpd 385, 2-{3-[(3R,5S)-3,5-dimethylpiperazin-1-yl]-1,2,4-triazin-6-yl}-5-(imidazo[1,2-b]pyridazin-6-yl)phenol] | ≤ 100 nM |
| CN(c1ncc(-c2ccc(-n3ncc4ccncc43)cc2O)nn1)C1CC(C)(C)NC(C)(C)C1 [Cpd 381, 2-{3-[methyl(2,2,6,6-tetramethylpiperidin-4-yl)amino]-1,2,4-triazin-6-yl}-5-(1H-pyrazolo[3,4-c]pyridin-1-yl)phenol] | ≤ 100 nM |
| [2H]C([2H])([2H])n1cc(-c2ccc(-c3cnc(NC4CC(C)(C)NC(C)(C)C4)nn3)c(O)c2)cn1 [Cpd 373, 5-[1-(^2H3)methyl-1H-pyrazol-4-yl]-2-{3-[(2,2,6,6-tetramethylpiperidin-4-yl)amino]-1,2,4-triazin-6-yl}phenol] | ≤ 100 nM |
| CNCC1CCN(c2ncc(-c3ccc(-c4cn[nH]c4)cc3O)nn2)C1 (stereo not shown) [Cpd 413, 2-(3-{3-[(methylamino)methyl]pyrrolidin-1-yl}-1,2,4-triazin-6-yl)-5-(1H-pyrazol-4-yl)phenol] | ≤ 100 nM |
| CC1(C)CC(Oc2ncc(-c3ccc(-c4cn[nH]c4)cc3O)nn2)CC(C)(C)N1 [Cpd 11, 5-(1H-pyrazol-4-yl)-2-{3-[(2,2,6,6-tetramethylpiperidin-4-yl)oxy]-1,2,4-triazin-6-yl}phenol] | ≤ 100 nM |
| CN(c1ncc(-c2ccc(-n3cnc(Cl)c3)cc2O)nn1)C1CC(C)(C)NC(C)(C)C1 [Cpd 59, 5-(4-chloro-1H-imidazol-1-yl)-2-{3-[methyl(2,2,6,6-tetramethylpiperidin-4-yl)amino]-1,2,4-triazin-6-yl}phenol] | ≤ 100 nM |
| Cn1ncc2cc(-c3ccc(-c4cnc(NC5CC(C)(C)NC(C)(C)C5)nn4)c(O)c3)ccc21 [Cpd 319, 5-(1-methyl-1H-indazol-5-yl)-2-{3-[(2,2,6,6-tetramethylpiperidin-4-yl)amino]-1,2,4-triazin-6-yl}phenol] | ≤ 100 nM |
| CC(C)NC1(C)CCN(c2ncc(-c3ccc(-c4cnn(C)c4)cc3O)nn2)C1 (stereo not shown) [Cpd 422] | ≤ 100 nM |
| CC1(C)CC(Oc2ncc(-c3ccc(-n4nccn4)cc3O)nn2)CC(C)(C)N1 [Cpd 122, 2-{3-[(2,2,6,6-tetramethylpiperidin-4-yl)oxy]-1,2,4-triazin-6-yl}-5-(2H-1,2,3-triazol-2-yl)phenol] | 100 to 500 nM |
| CC1(C)CC(Nc2ncc(-c3ccc(-c4cn5ccccc5n4)cc3O)nn2)CC(C)(C)N1 [Cpd 360, 5-(imidazo[1,2-a]pyridin-2-yl)-2-{3-[(2,2,6,6-tetramethylpiperidin-4-yl)amino]-1,2,4-triazin-6-yl}phenol] | 100 to 500 nM |
